Ends that are not written are not given here.
Tests used:
[1] = Affinity chromatography with GlcNAc-agarose beads; type: binding; conditions: Examples 11 and 12; FIG. 11, FIG. 12
Experimental: (§1) For chromatography, heparin-agarose beads (Biovision) and GlcNAc-agarose beads (Sigma) were used. 10 ng of FITC labelled peptide (F-peptide) was mixed in PBS-T buffer with heparin-agarose beads and GlcNAc-agarose beads, each precoated with BSA, and incubated at RT for 10 min. Then the mixture was washed 3 times with PBS-T buffer and resuspended in PBS for fluorescent measurement. For competitive binding experiments, the present peptide not labelled with FITC (Cold) was added to the mixture at various ratios of 1:1, 1:10 (10 times) and 1:100 (100 times) and allowed for incubation followed by fluorescent measurement. As a negative control, only FITC dyes were used to react with the beads. Further fluorescent signals from a sample containing just beads suspended in PBS were used as a blank.
(§2) The peptides as listed and described in Table 2 were synthesized as described in Example 1 and tested for its adhesiveness to heparin and N-Acetylglucosamine (GAG) according to the methods described in Example 5.

[2] = Affinity chromatography with heparin-agarose beads; type: binding; conditions: Examples 11 and 12; FIG. 11, FIG. 12
Experimental: as §1, §2

MC3T3-E1 = experiment: Comparative cell attachment experiment with soluble RGDs (CCK-8); type: cell-based, Mouse; conditions: RGDs peptides used alone, 0-1000 μM; FIG. 4C
Experimental: The present peptide A7-1 (10 μM) or A7-1 together with soluble RGDs peptide (0, 10, 100 and 1000 μM) for competition assay were added to anchorage dependent cells MC3T3-E1 in a test tube and incubated for 10 min. Then the cells were transferred to a culture plate and incubated for 10 min in a thermostatic incubator to allow the cells to attach. After 10 min, the medium was removed and the cells were washed 2 times with PBS to remove any unattached cells and a fresh medium without the peptide and CCK-8 (Dojindo) were added to the cells and incubated for 1 hr in a thermostatic incubator. Then the absorbance was measured at 450 nm. The medium mixed with CCK-8 only was used as a blank.

osteoblast MC3TC-E1 = experiment: Safety in osteoblasts: proliferation, viability, differentiation; type: cell-based, Mouse; conditions: 0.1, 1, 10 and 100 μM
Experimental: The safety of the present peptides was determined using osteoblast MC3TC-E1. Osteoblasts were treated with A7-1 peptide as prepared in Example 1 at the concentration of 0.1 μM, 1 μM, 10 μM and 100 μM. Then the effect of the present peptide on the proliferation (FIG. 8A), viability (FIG. 8B) and differentiation (FIG. 8C) on the cells was examined. For testing the effect on the […], MC3T3-E1 and C2C12 cell lines were treated with BMP (rhBMP2, 10 ng/ml for 3 days) and differentiation medium for bone formation for 6 days to induce differentiation. The results were examined by cell staining. It is observed that the present peptide has no effect on the proliferation rate, viability rate or whether or not the cells are differentiated.

Q: With KQLVVKFRALPC [SEQ ID NO: 21] as the substance, how does the “adhesiveness to N-Acetylglucosamine (GAG)” value [1] read?
A: working

Q: And the adhesiveness to heparin [2]?
A: working

Q: For “RGDs: soluble RGDs peptides used as a competitor; binds to adhesive molecule integrins (RGDS)”, which “adhesiveness of the cells” value (MC3T3-E1) is on record?
A: decreased in a concentration dependent manner

Q: Which results are given for RQLVVKFRALPC [A7-1]?
A: effect on proliferation rate (osteoblast MC3TC-E1; FIG. 8A): no effect; effect on viability rate (osteoblast MC3TC-E1; FIG. 8B): no effect; effect on whether or not the cells are differentiated (osteoblast MC3TC-E1; FIG. 8C): no effect

Reference: patent publication US10851132B2, “Protein based adhesive composition and method” (SEWON BIOTECHNOLOGY INC., priority 2015, dated 2020)
